This is an account of results in article PMC11931052, “Efficacy of dispirotripiperazine PDSTP in a golden Syrian hamster model of SARS-CoV-2 infection” (Frontiers in Microbiology, 2025).

SMILES strings stand for the structures.

Series [1] can be described thus: Cytotoxicity (MTT test) in Vero E6 cell line. In kind it is cell-based, African Green Monkey (Cercopithecus aethiops). The settings on record: African green monkey, mean ± SD, three independent experiments. The protocol:
The microtetrazolium test (MTT test) was used to study the cytotoxicity of the compounds. Vero cells were seeded in 96-well plates at an initial density of 3×10^5 cells/mL, in Gibco Dulbecco’s Modified Eagle Medium supplemented with L-glutamine and 25 mg/L kanamycin, and 10 % fetal bovine serum (FBS) (DMEM, Thermo Fisher Scientific, Waltham, MA USA). Cell cultures were then incubated at 37 °C in a 5 % CO2 atmosphere, in the absence or presence of serial dilutions of test compounds. The test medium used for the cytotoxic assay as well as for the antiviral assay contained 1 % of the appropriate serum. Cell viability was determined after 72 h at 37 °C by the MTT method as previously reported. The cell viability was expressed as a percentage of the control. The 50% cytotoxic concentration (CC50) of each compound was defined as the concentration of the compound that reduced the absorbance (OD570) of the treated cells to 50% when compared with that of untreated cells. CC50 mean values were calculated from at least three independent experiments.
A general note: Tetrazolium dyes change colour on reduction, which living cells bring about.

Series [2] concerns SARS-CoV-2 clinical isolate 35245. In words: Microtetrazolium (MTT) test, SARS-CoV-2 35245. In kind it is cell-based. The settings on record: Severe acute respiratory syndrome coronavirus 2, read-out: Antiviral activity IC50 against coronaviruses, SARS-CoV-2 clinical isolate 35245, MTT. The protocol: The compound’s activity against OC43 and SARS-CoV-235245 was based on the inhibition of virus-induced cytopathogenicity in acutely infected Vero-76 cells (MOI 0.01). Briefly, Vero-76 cells were seeded in 96-well plates at a density of 3 × 10^4 cells/well and incubated in a growth medium in a 5% CO2 at 37°C overnight. Cell monolayers were then infected with 50 μL of the appropriate viral dilution in maintenance medium [D-MEM and MEM-Earl (Gibco, Thermo Fisher Scientific, MA United States) with L-glutamine (Gibco), 1 mM sodium pyruvate (Gibco), and 0.025 g/L kanamycin (Gibco), supplemented with 0.5% inactivated FBS (Harlan Sera-Lab, Loughborough, United Kingdom), respectively] to give an MOI of 0.01, without or with serial dilutions of test samples. After 6 (HCoV-OC43) and 4/5 (SARS-CoV-2) days of incubation at 37°C, the extent of cell viability was quantified using a tetrazolium-based colorimetric method, in which the reduction of 3-(4,5-dimethylthiazol-2-yl)-2,5-diphenyl-tetrazolium bromide (MTT) by mitochondrial dehydrogenases to a soluble colored formazan was measured using a spectrophotometer (Infinity 200, Tecan Austria GmbH, Austria) at 570 nm, as previously reported ([Sanna et al., 2020]).

Series [3] has the same test system. In words: Plaque reduction assay, SARS-CoV-2 35245. In kind it is cell-based. Particulars: Severe acute respiratory syndrome coronavirus 2, read-out: Antiviral activity IC50 against coronaviruses, SARS-CoV-2 clinical isolate 35245, PR. (In general: Plaque reduction counts the foci of infection that form in a cell layer.)
Another series has as its system SARS-COV-2 PV10734. In words: Penetration assay in Vero cells. In kind it is cell-based. The settings on record: at higher concentrations. The method, then: A penetration assay was performed with small modifications according to the method reported earlier ([Chang et al., 2012]). A 24-well tissue culture plate was seeded with Vero cells (3 × 10^5 cells/well), which were then incubated overnight at 37°C in a 5% CO2 atmosphere. The cells were pre-chilled on ice for 1 h, and the medium was removed. The cells were infected with 100 PFU of SARS-CoV-2 PV10734 on ice for 2 h. The medium containing the unbound virus was then removed. Various concentrations of PDSTP (100–0.8 μM) in the medium were added, and the cells were incubated at 37°C for 1 h to trigger endocytosis of the virus. The infected cells were then treated with alkaline PBS (pH 11) for 1 min to inactivate viruses that had not penetrated the cells. Acidic PBS (pH 3) was then added to neutralize the mixture. The neutralized medium was removed; the cells were overlaid with methylcellulose in media and then were incubated at 37°C. After the 72-h incubation period, the cells were stained, and the plaques were determined by counting.

Series [4] is described as follows: Acute toxicity, intravenous administration, rats. The settings on record: both sexes, rat, in vivo, Rats (M/F).
Series [5] can be described thus: Acute toxicity, topical application, mice. In kind it is in vivo. The settings on record: for LD50: acute toxicity, topical application.
Series [6] in a line: Acute toxicity, intragastric administration, rats. In kind it is in vivo. The settings on record: maximum dose 5000 mg/kg.
Series [7] is described as follows: Chronic toxicity, intranasal administration, rats. In kind it is in vivo. The settings on record: repeated administration for 14 days, 10-200 mg/kg.
A short description of series [8]: Chronic toxicity, intranasal administration, rabbits. In kind it is in vivo. The settings on record: repeated administration for 14 days, 10-200 mg/kg.
The next series has as its system mouse bone marrow cells. In words: Chromosomal aberrations in mouse bone marrow cells. In kind it is in vivo, F1 hybrids of SWAxC57BL/6 mice. Particulars: 400 mg/kg and 1000 mg/kg topically. The method, then:
(§1) PDSTP doses tested: 400 mg/kg and 1000 mg/kg
(§2) Test subjects: F1 hybrids of SWAxC57BL/6 mice.
Method of administration: topically

The subject of series [9] is bone marrow, liver, kidney and spleen cells. In words: DNA damage accounting test (DNA Comet). In kind it is in vivo, F1 hybrids of SWAxC57BL/6 mice. The settings on record: 400 mg/kg and 1000 mg/kg topically. The protocol:
as §1, §2
Method of administration: topically.

Series [10] can be described thus: Allergenicity study, guinea pigs. In kind it is in vivo. The settings on record: intradermal sensitizing dose 40 µg into the ear; epicutaneous and conjunctival testing.
Series [11] can be described thus: Allergenicity study, delayed-type hypersensitivity, mice. In kind it is in vivo. The settings on record: SWA x C57BL/6 mice.
Series [12] is described as follows: Reproductive toxicity: embryotoxicity study. In kind it is in vivo, white laboratory rats. The settings on record: 10% solution, daily topical application, days 6 to 19 of gestation. The source says: (§3) PDSTP doses tested: 10% solution
(§4) Test subjects: white laboratory rats of both sexes
Pregnant rats from 6 to 19 days of gestation received daily topical application of PDSTP on 5% of the body surface area (3x5 cm area).

Series [13] in a line: Reproductive toxicity: postnatal development of F1 generation offspring. In kind it is in vivo, white laboratory rats. Particulars: female rats received PDSTP from the 6th day of gestation to delivery. The method, then: as §3, §4
During the study of postnatal development and fertility of F1 generation offspring born from female rats that received PDSTP from the 6th day of gestation to delivery, the rates of physical development, the rate of maturation of sensory-motor reflexes and emotional-motor behavior, as well as fertility were evaluated in comparison with rats born from intact females.

The subject of series [14] is herpes simplex epithelial keratitis. Also on record: method as in Alimbarova et al., 2022. The settings on record: rabbit model; ref Alimbarova et al., 2022; cited from earlier work.

`Cc1nc(N2CC[N+]3(CC2)CC[N+]2(CCNCC2)CC3)c([N+](=O)[O-])c(N2CC[N+]3(CC2)CC[N+]2(CCNCC2)CC3)n1.Cl.Cl.O.O.O.O.O.O.O.O.O.[Cl-].[Cl-].[Cl-].[Cl-]` [PDSTP, 3,3′-(2-methyl-5-nitropyrimidine-4,6-diyl)bis-3,12-diaza-6,9-diazonia-dispiro[5.2.5.2]hexadecane tetrachloride dihydrochloride nonahydrate]: in series [1], the CC50 at 72 h was 183 ± 40.5 µM. Moreover, the IC50 in series [2] turned out to be 14.5 ± 3.3 µM; in [3], 21.4 ± 7.4 µM. In addition, in the series on SARS-COV-2 PV10734, the “Viral inhibition, penetration experiment” value is given as “only modest viral inhibition”. Further, the LD50 in series [4] is 140 mg/kg; in series [5] it was “greater than 31.25 mg/cm^2”; in [5] (mouse, in vivo, topical or ocular, 2500 mg/kg, read-out: LD50) it was more than 2500 mg/kg. In addition, in series [5] (maximum regulated amount applied to the skin), the “Toxicity and local irritant effects on skin” value was “No manifestations of toxicity and local irritant effects were observed”. Moreover, the Clinical signs result in series [6] is “piloerection and diarrhea, deterioration of hair coat, decreased motor activity, and decreased body weight”. For the same compound, the Mortality entry in [6] is “The death of animals was not recorded”. For the same compound, the “Toxic effect on organs and systems” value is “toxic effect on organs and systems was not revealed” in [7]; “toxic effect on organs and systems was not revealed” in series [8]. Besides, the “Induction of chromosomal aberrations” value in the series with mouse bone marrow cells is recorded as “did not reveal the ability to induce chromosomal aberrations”. The “Induction of DNA damage (DNA Comet)” value in series [9] is listed as “does not induce DNA damage”. For the same compound, the Sensitizing properties result in series [10] was “no sensitizing properties”. For the same compound, the Delayed-type hypersensitivity entry in series [11] was “No delayed-type hypersensitivity was detected”. In series [12], the Embryotoxic effect entry is given as “no adverse embryotoxic effect”. The “Effect on fertility of F1 generation offspring” value in [13] is given as “No statistically significant effect”. Besides, in series [13], the “Effect on postnatal development of F1 generation offspring” value was “does not adversely affect the studied parameters”. Besides, in [14], the “Reduction of mean progression and corneal lesions” value was “comparable to traditional aciclovir”.

Broadly, the CC50 is the concentration that lowers cell viability or growth by half. A lower CC50 goes with greater toxicity to the cells. As a reminder, the IC50 is the point on the concentration scale where inhibition reaches its midpoint. What is called LD50 is the dose at which mortality reaches 50%.
